Reference: patent US10881656B2, “HIF inhibitors and use thereof” (The General Hospital Corporation, priority 2008, dated 2021)

Columns and labels:
[1] = tested on: putative IRE in HIF-1a 5′-UTR; test: Luciferase reporter with putative HIF-1a IRE; type: cell-based, human; conditions: 786-O derived reporter lines, normoxia or 1% oxygen
Method: (§1) The consensus sequence of the loop and the mandatory 5′ cytosine bulge are highlighted with light blue circles. […] Duplicate plates of 786-O derived lines expressing the putative wild-type or mutant HIF-1a IRE were cultured in the presence of compound as described for FIG. 1, with the exception that one set was placed at 1% oxygen for 24 hours following the first day's medium-change. Cells were treated with M, medium only; D, DMSO; or compounds, as indicated at the following concentrations: 40, 40 μM; 41, 30 μM; 76, 10 μM; 77, 5 μM. […] CWR22R or Hep3B cells were treated with compound and subjected to hypoxia as described above. B-Actin is shown for loading control. Cells were treated with M, medium only; D, DMSO; or compounds, as indicated at the following concentrations: 40, 40 μM; 41, 30 μM; 76, 20 μM; 77, 7.5 μM.
The lack of a functional IRE in HIF-1a represents a clear dichotomy between the two HIF isoforms that allows their translation to be controlled by a different regulatory system.

HIF and VHL target genes = test: Gene expression profiling and gene set enrichment analysis (GSEA) of compound treated 786-O cells; type: cell-based, human; conditions: for regulation of HIF target genes: 786-O cells at experimentally determined IC50 concentrations; for NES, gene set PRC3, VHL null (markers of PRC3 cells compared to WT8 cells) / NES, gene set Schofield, HIF (validated HIF-regulated genes) / NES, gene set Staller, VHL WT (markers of VHL WT cells compared to VHL null cells) / NES, gene set Staller, VHL null (markers of VHL null cells compared to VHL WT cells) / NES, gene set WT8, VHL WT (markers of WT8 cells compared to PRC3 cells): 786-O cells, GSEA normalized enrichment score
Method: RNA from compound treated 786-O cells was isolated as described for qRT-PCR experiments. Labeled cRNA was prepared and hybridized to Affymetrix U133 Plus 2.0 microarrays according to the manufacturer's protocols. Scans were processed using Affymetrix MASS software and median scaled. Gene expression values less than a minimum threshold of 20 or a maximum threshold of 16000 were set to 20 and 16000, respectively. Genes with minimal variation across the dataset were discarded (maximum/minimum<3 or maximum−minimum<100). Class neighbors were identified with GenePattern software using the signal to noise metric (Golub et al., 1999). Hierarchical clustering was performed using dCHIP software. Gene set enrichment analysis was performed as described (Mootha et al., 2003) and significance was determined by permutation of the gene labels. Gene expression signatures were analyzed using the Connectivity Map webtool (build 01). Full details of the Connectivity Map dataset and analytics are provided elsewhere (Lamb et al., 2006). For PGJ2 expression analysis, raw gene-expression data have GEO series accession number GSE13818 and compound signatures from which non-HG-U133A probe sets were removed (see Table 6) were used to query the Connectivity Map (build 02).
Total RNA was extracted from stable 786-O derived VHL-reconstituted (WT8), HIF-2a knock down (pTR) and their respective vector only control (PRC3 and pTV) cells and labeled cRNA was hybridized to oligonucleotide arrays. […] Compound-treated parental 786-O cells were subjected to the same analysis. […] The gene set enrichment analysis (GSEA) algorithm was used to investigate whether the compounds affected the expression of genes identified as VHL and HIF targets in other cell types (Mootha et al., 2003).

[2] = tested on: iron (Fe-(EDHB)3 complex); test: In vitro iron competition assay; conditions: 0-200 micromolars, absorbance at 500 nm
Method: This assay was performed similarly to that described previously (Wang et al., 2002). Briefly, displacement of iron from ethyl-3,4-dihydroxybenzoate (EDHB) complex was measured as a decrease in absorbance at 500 nm. Ferric iron, prepared as a 5 mM stock solution of FeC13 in 100 mM sodium citrate, was diluted to 25 μM in the presence of 750 μM EDHB. 1 ml aliquots of this solution were then mixed with 0, 25, 50, 100 or 200 micromolars of compounds 40, 41, 76, and 77 as well as EDTA and DFO for controls. […] The self absorbance of compound 41 in a matched solution lacking Fe-(EDHB)3 was subtracted from the A500 value obtained in the presence of the Fe-(EDHB)3 complex.
The inventors next directly tested whether the compounds bind iron by performing a competition assay in which the displacement of iron from ethyl-3,4-dihydroxybenzoate (EDHB), a weakly chelating ester, was measured as a decrease in absorbance at 500 nm. […] In addition, the inventors utilized the Connectivity Map to look for similarities between the induced gene expression signatures of low and high dose DFO and compound treated cells (Lamb et al., 2006). Using this bioinformatic approach, the inventors discovered no significant similarity between the gene expression profile of the compounds and low (chelating) DFO dose, while there was a negative correlation between compound effect and high (HIF stabilizing) DFO dose (see FIG. 13).

HIF-2a = HIF-2a protein stability (cycloheximide, 35S-methionine pulse chase); type: cell-based, human; conditions: 786-O cells; for HIF-2a protein stability after cycloheximide: 10 μg/mL cycloheximide
Method: Cells were treated with medium only, DMSO, or compound as described for western blots. Following the second day of compound incubation, 10 μg/mL cycloheximide (CHx) was added to halt de novo protein synthesis and time points were taken. Protein quantification and Western blots were performed as described.
Cells were treated with medium only, DMSO, or compound as described for western blots. Following the second day of treatment, cells were washed twice in PBS and then placed into medium only, DMSO, or labeling medium (methionine minus DMEM supplemented with 1× glutamine and 5% dialyzed FBS) and pulse-labeled for 30 minutes at 37° C. with 0.5 mCi ^35S-Methionine (New England Nuclear) per p100 plate. Cells were washed twice in PBS and lysed with RIPA buffer supplemented with protease inhibitors. […] In the case of the pulse-chase experiment, two identically treated plates were placed into chasing medium (DMEM supplemented with 10% Fetal Clone I, 1× Glutamine and 3 mg/mL methionine), placed back into the 37° C. incubator and harvested after 1.5 and 3 hours. Immunoprecipitated samples were subjected to SDS-PAGE, enhanced in sodium salicylate, dried and exposed for 2-3 days before the film was quantified by densitometry.
Quantitative RT-PCR was performed on total RNA harvested from 7H4 cells treated with medium only, DMSO or compound. […] To test whether the compounds alter HIF-2a stability, the inventors assessed protein half-life following the addition of cycloheximide in compound versus DMSO-only treated cells (see FIG. 10).

786-O cells = test: Cellular toxicity at IC50 concentrations; type: cell-based, human
HIF-1a = test: Western blot for HIF-1a in hypoxic CWR22R and Hep3B cells; type: cell-based, human; conditions: hypoxia
Method: as §1
Hypoxia stabilized HIF-2a in VHL-reconstituted WT8 cells, but treatment with compounds diminished hypoxia-induced HIF-2a expression (FIG. 3C).

[3] = tested on: HIF-2a 5′-UTR Iron-Responsive Element (IRE); test: Luciferase reporters with HIF-2a 5′-UTR / IRE in 786-O cells; type: cell-based, human; conditions: for dependence of effect on the IRE (wild-type or mutant 5′-UTR IRE reporter): 786-O luciferase reporter lines; for dependence of effect on HIF-2a 5′-UTR: HIF-2a promoter luciferase with or without 5′-UTR
[4] = tested on: Transferrin Receptor 1 (TfR1) mRNA; test: qRT-PCR for Transferrin Receptor 1 mRNA; conditions: for Transferrin Receptor 1 mRNA expression: compound treated 786-O cells

TfR1 mRNA stability ([4]; 786-O cells following addition of Actinomycin D) | Compound | effect on putative IRE in HIF-1a 5′-UTR [1] | regulation of HIF target genes (HIF and VHL target genes) | NES, gene set PRC3, VHL null (markers of PRC3 cells compared to WT8 cells) (HIF and VHL target genes) | NES, gene set Schofield, HIF (validated HIF-regulated genes) (HIF and VHL target genes) | NES, gene set Staller, VHL WT (markers of VHL WT cells compared to VHL null cells) (HIF and VHL target genes) | NES, gene set Staller, VHL null (markers of VHL null cells compared to VHL WT cells) (HIF and VHL target genes) | NES, gene set WT8, VHL WT (markers of WT8 cells compared to PRC3 cells) (HIF and VHL target genes) | displacement of iron from EDHB complex (iron chelation) [2] | HIF-2a protein stability by 35S-methionine pulse chase (HIF-2a) | HIF-2a protein stability after cycloheximide (HIF-2a) | cellular toxicity (786-O cells) | hypoxic induction of HIF-1a (HIF-1a) | dependence of effect on the IRE (wild-type or mutant 5′-UTR IRE reporter) [3] | dependence of effect on HIF-2a 5′-UTR [3] | Transferrin Receptor 1 mRNA expression [4]
decreases TfR1 mRNA stability | COC(=O)c1sccc1N/N=C(/C#N)S(C)(=O)=O [Compound 76, methyl 3-{2-[cyano(methylsulfonyl)methylene] hydrazino}thiophene-2-carboxylate] | do not affect putative IRE in HIF-1a 5′-UTR | coordinately downregulate HIF target genes | NES: −3.15 | NES: −1.78 | NES: 1.53 | NES: −2.45 | NES: 1.88 | are not iron chelators | have no affect on HIF-2a protein stability | no compound of 40, 41, 76 and 77 significantly affects HIF-2a stability | comparative lack of cellular toxicity at IC50 concentrations | indirectly suppress hypoxic induction of HIF-1a in multiple cell types | work via the Iron-Responsive Element (IRE) | dependent upon presence of 5′-UTR | increase expression of Transferrin Receptor 1 mRNA
– | CC1(C)CC(=O)C=C(Sc2ccc(C#N)cc2[N+](=O)[O-])S1 [Compound 77, 4-[(2,2-dimethyl-4-oxo-3,4-dihydro-2H-thiin-6-yl)thio]-3-nitrobenzonitrile] | do not affect putative IRE in HIF-1a 5′-UTR | coordinately downregulate HIF target genes | NES: −3.15 | NES: −1.78 | NES: 1.53 | NES: −2.45 | NES: 1.88 | are not iron chelators | have no affect on HIF-2a protein stability | no compound of 40, 41, 76 and 77 significantly affects HIF-2a stability | comparative lack of cellular toxicity at IC50 concentrations | indirectly suppress hypoxic induction of HIF-1a in multiple cell types | work via the Iron-Responsive Element (IRE) | dependent upon presence of 5′-UTR | increase expression of Transferrin Receptor 1 mRNA
